{"source": "patent US9902783B2", "about": "“Antibodies and pharmaceutical compositions containing same useful for inhibiting activity of metalloproteins” (Yeda Research and Development Co. Ltd., priority 2007, dated 2018)", "molecules": {"B1": {"name": "15E12: monoclonal antibody, IgG2a, raised against the hapten ZnTCPP (antibody)", "heavy": "EGPGLVAPSQSLSITCTVSGISLSSYDISWIRQPPGKGLEWLGVMETWSGGGTENYNSAFMETSRLSISKDNSKRQVFLNMETNSVQIDDTATYYCIGRLHYYGYWFLDVWDQG", "light": "EMETTQTPLSLPVSLGDQASISCRSSQSIVQSNGNTYLDWYLQKPGQSPKLLIYKVSNERFSGVPDRFSGSGSGTDFTLKISRVEADDLGVYYCFQGSHVPYTFGGG", "modifications": "15E12 mAb heavy chain; 15E12 mAb light chain", "notes": "monoclonal antibody, IgG2a, raised against the hapten ZnTCPP"}}, "key": {"[1]": {"conditions": "patients; cited from earlier work"}, "metastasis": {"test_system": "metastasis", "conditions": "phase III, advanced cancer patients; cited from earlier work"}, "[2]": {"test_system": "cell surface gelatinolytic activity of HT1080 cells", "experiment": "in situ zymography with DQ-gelatin", "format": "cell-based, human", "conditions": "15 μM SB-3CT", "method": "To localize net gelatinolytic activity of MMPs by in situ zymography, fluorescein isothiocyanate-labeled DQ gelatin that is intramolecularly quenched (Molecular Probes) was used as a substrate for degradation by gelatinases. Proteolysis by gelatinases yields cleaved fluorescein isothiocyanate-gelatin peptides and the localization of this fluorescence indicates the sites of net gelatinolytic activity. Briefly, Human fibrosarcoma HT1080 cells (which produce MMP-2, MMP-9 and MT1-MMP) were plated on 12-mm coverslips. […] Untreated cells served as negative control for this experiment. Cells were washed with PBS and then incubated with zymography reaction buffer (0.05 M Tris-HCl, 0.15 M NaCl, 5 mM CaCl2, and 0.2 mM NaN3, pH 7.6, the high concentration of azide prevented the gelatin from being phagocytosed and thus allowing cell surface gelatinolytic activity to occur) containing 60 ug/ml DQ gelatin at 37° C. overnight. […] At the end of the incubation period, without fixation or further washes, gelatinolytic activity of the MMPs was localized and photographed by fluorescence microscopy and images were acquired by Spot digital camera.\nTo confirm the inhibitory activity of anti CoTCPP mAb at cellular level, the effect of the antibody was examined on gelatinolytic activity of human fibrosarcoma HT1080 cells that constitutively secrete MMP-2 and 9 by in situ zymography. To localize gelatinolytic activity of MMPs by in situ zymography, fluorescein isothiocyanate-labeled gelatin that is intramolecularly quenched (DQ-gelatin) was used as substrate. Proteolysis by gelatinases yields cleaved fluorescein isothiocyanate-gelatin peptides and the localization of this fluorescence indicates the sites of net gelatinolytic activity."}, "MT1-MMP": {"biological_target": "MT1-MMP (Homo sapiens, UniProt P50281)", "conditions": "cited from earlier work"}, "[3]": {"conditions": "peptide-based hydroxamate; cited from earlier work"}, "MMP-2": {"test_system": "MMP-2", "experiment": "kinetic assay with fluorogenic peptide substrate, MMP-2", "format": "biochemical, human"}, "MMP-9": {"test_system": "MMP-9", "sequence (P14780 107-444 limits assumed)": "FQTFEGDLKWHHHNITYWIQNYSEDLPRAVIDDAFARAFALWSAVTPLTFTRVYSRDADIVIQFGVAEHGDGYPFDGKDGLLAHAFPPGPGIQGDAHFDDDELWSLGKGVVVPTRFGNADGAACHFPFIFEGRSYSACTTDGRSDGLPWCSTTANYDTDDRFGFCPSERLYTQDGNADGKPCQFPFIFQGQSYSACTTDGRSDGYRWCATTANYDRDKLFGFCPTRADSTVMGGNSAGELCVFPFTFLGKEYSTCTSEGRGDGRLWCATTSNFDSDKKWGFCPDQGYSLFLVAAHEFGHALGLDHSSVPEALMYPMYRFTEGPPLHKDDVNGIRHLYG", "experiment": "kinetic assay with fluorogenic peptide substrate, MMP-9", "format": "biochemical, human"}, "MT1-MMP (MMP-14)": {"biological_target": "MT1-MMP (MMP-14) (Homo sapiens, UniProt P50281)", "experiment": "kinetic assay with fluorogenic peptide substrate, MT1-MMP", "format": "biochemical", "conditions": "Table 4"}, "TACE (ADAM-17)": {"biological_target": "TACE (ADAM-17) (Homo sapiens, UniProt P78536)", "sequence (P78536 215-824, species assumed)": "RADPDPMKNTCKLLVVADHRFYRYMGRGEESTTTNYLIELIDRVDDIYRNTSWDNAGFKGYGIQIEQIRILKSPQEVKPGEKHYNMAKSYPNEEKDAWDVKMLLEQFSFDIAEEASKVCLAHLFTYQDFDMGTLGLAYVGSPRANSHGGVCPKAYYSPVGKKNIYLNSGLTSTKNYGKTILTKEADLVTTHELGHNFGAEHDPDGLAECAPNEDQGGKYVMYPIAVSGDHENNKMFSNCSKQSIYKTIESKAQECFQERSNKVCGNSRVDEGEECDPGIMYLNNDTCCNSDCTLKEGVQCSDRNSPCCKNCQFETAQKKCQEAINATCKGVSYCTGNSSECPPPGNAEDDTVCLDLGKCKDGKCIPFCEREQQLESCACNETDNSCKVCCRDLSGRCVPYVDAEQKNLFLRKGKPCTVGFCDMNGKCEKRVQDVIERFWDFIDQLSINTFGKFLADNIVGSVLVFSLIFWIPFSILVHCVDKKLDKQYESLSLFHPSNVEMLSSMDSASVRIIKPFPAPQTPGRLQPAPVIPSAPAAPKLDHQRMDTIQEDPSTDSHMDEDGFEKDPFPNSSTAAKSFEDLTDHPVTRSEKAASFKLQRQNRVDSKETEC", "experiment": "kinetic assay with fluorogenic peptide QF-45, TACE", "format": "biochemical", "conditions": "Table 4"}, "[4]": {"experiment": "competitive ELISA, affinity of mAbs toward their immunizing hapten", "conditions": "concentration of soluble hapten for 50% binding", "method": "Supernatants of the growing hybridomas were screened for antibodies reactive with ZnTCPP, CoTCPP or Imisdp using direct ELISA in which respective hapten-BSA (3 μg/ml in PBS) was coated to Nunc maxisorp plates. The coating was performed at 4° C. overnight and incubation with antibodies at 20° C. for 1 h. HRP-conjugated anti-mouse mAb (Sigma) was used as the secondary antibody and 2,2′-azino-bis (3-ethylbenzthiazoline-6-sulphonic acid, ABTS, Sigma) was used as substrate. PBS containing 0.005% v/v Tween 20 (PBST) was used as washing reagent. The dilution buffer was PBS. A602 was recorded by microplate reader in […]luor Plus spectrometer (Tecan, Austria). As control supernatants were incubated with BSA coated plates in the same manner Absorbance values above 0.5 millioptical density were considered as positive.\nDifferent dilutions of hybridoma supernatant were incubated with hapten-BSA coated plates following the steps described earlier. Titration curve was plotted and the titer dilution was determined at 50% of binding. Supernatants diluted to the titer concentration were preincubated with soluble ZnTCPP, CoTCPP or Imisdp compounds for 30 minutes and then transferred to hapten-coated microtiter plates following the steps described previously. The estimated dissociation constant was the concentration of soluble hapten required to attain 50% binding."}}, "data": [{"molecule": "O=C(C[C@H](CSc1ccccc1)C(=O)O)c1ccc(-c2ccc(Cl)cc2)cc1", "note": "[BAY12-9566]", "values": [{"measurement": "severe side effects", "setting": "[1]", "value": "liver abnormalities, anemia, shoulder and back pain, thrombocytopenia, nausea, fatigue, diarrhea and deep vein thrombosis"}, {"measurement": "clinical efficacy in inhibiting metastasis", "setting": "metastasis", "value": "no clinical efficacy"}]}, {"molecule": "COc1ccc(S(=O)(=O)N(Cc2cccnc2)[C@@H](C(=O)NO)C(C)C)cc1", "note": "[CGS27023A]", "values": [{"measurement": "severe side effects", "setting": "[1]", "value": "widespread maculopapular rash"}]}, {"molecule": "O=S(=O)(CC1CS1)c1ccc(Oc2ccccc2)cc1", "note": "(stereo not drawn) [SB-3CT, reference compound]", "values": [{"measurement": "cell surface gelatinolytic activity", "setting": "[2]", "value": "inhibition observed"}, {"measurement": "Ki", "setting": "MT1-MMP", "value": 0.11, "unit": "µM"}]}, {"molecule": "CNC(=O)[C@H](Cc1ccccc1)NC(=O)[C@H](CC(C)C)[C@H](CSc1cccs1)C(=O)NO", "note": "[batimastat]", "values": [{"measurement": "metabolic stability and oral bioavailability", "setting": "[3]", "value": "low"}]}, {"molecule": "CNC(=O)[C@@H](NC(=O)[C@H](CC(C)C)[C@H](O)C(=O)NO)C(C)(C)C", "note": "[marimastat]", "values": [{"measurement": "severe side effects", "setting": "[1]", "value": "muscoloskeletal problems"}, {"measurement": "clinical efficacy in inhibiting metastasis", "setting": "metastasis", "value": "no clinical efficacy"}]}, {"molecule": "B1", "values": [{"measurement": "IC50", "setting": "MMP-2; Table 4", "value": "> 30", "unit": "µM"}, {"measurement": "inhibition of proteolytic activity of MMP-2", "setting": "MMP-2; continuous fluorometric assay", "value": "did not show inhibitory effect"}, {"measurement": "IC50", "setting": "MMP-9; Table 4", "value": "> 30", "unit": "µM"}, {"measurement": "inhibition of proteolytic activity of MMP-9", "setting": "MMP-9; continuous fluorometric assay", "value": "did not show inhibitory effect"}, {"measurement": "IC50", "setting": "MT1-MMP (MMP-14)", "value": "> 30", "unit": "µM"}, {"measurement": "IC50", "setting": "TACE (ADAM-17)", "value": "> 30", "unit": "µM"}, {"measurement": "Kd", "setting": "[4]", "value": 0.01, "unit": "µM"}]}]}
